Converted amounts (≈) assume the structure as drawn.
Experiments:
Gliocladium virens = test: MIC against fungi, Gliocladium virens (PDA medium); assay type: cell-based; details: Trichoderma virens, 336 h; 28° C., 2 weeks; read-out: Antimicrobial activity (MIC), Fungi G: Gliocladium virens
Description: (§1) The minimum inhibitory concentration (hereinafter abbreviated as MIC) against four bacteria (Enterobacter aerogenes, Eschericia coli, Pseudomonas aeruginosa and Bacillus subtillis) and four fungi (Aspergillusniger, Penicillium funiculosum, Gliocladium virens and Trichoderma viride) was measured and used as an indicator of the antimicrobial activity.
(§2) The MIC against fungi was measured as follows. The test fungal spores were suspended in sterilized water supplemented with a wetting agent. On the other hand, test media were prepared by adding solutions (0.3 ml) of an iodopropargyl derivative in dimethylformamide (DMF) at varying concentrations to a potato-dextrose-agar (PDA) medium (15 ml). The above spore suspensions (1 ml) were spread over the test media and the media were cultivated at 28° C. for 2 weeks. The presence or absence of fungal growth on the media was then observed to determine the MIC.

human body = details: background art; cited from earlier work
Eschericia coli = test: MIC against bacteria, Eschericia coli (nutrient broth, turbidity); assay type: cell-based; details: 30° C., 24 hours; read-out: Antimicrobial activity (MIC), Bacteria B: Eschericia coli
Description: as §1
(§3) The MIC against bacteria was measured as follows. The test bacteria were cultivated by inoculating a nutrient broth with them and keeping the mixture at 37° C. for 6 hours. On the other hand, the test media were prepared by adding solutions (0.2 ml) of an iodopropargyl derivative in dimethylformamide (DMF) at varying concentrations to the nutrient broth (10 ml). The above bacterial culture (0.1 ml) was added to the test media and the mixtures were cultivated at 30° C. for 24 hours. Then, the presence or absence of microorganism growth was assessed by observing the turbidity of media, by which the MIC was determined.

Penicillium funiculosum = test: MIC against fungi, Penicillium funiculosum (PDA medium); assay type: cell-based; details: Talaromyces funiculosus, 336 h; 28° C., 2 weeks; read-out: Antimicrobial activity (MIC), Fungi F: Penicillium funiculosum
Description: as §1, §2

Bacillus subtillis = test: MIC against bacteria, Bacillus subtillis (nutrient broth, turbidity); assay type: cell-based; details: 30° C., 24 hours, read-out: Antimicrobial activity (MIC), Bacteria D: Bacillus subtillis
Description: as §1, §3

Aspergillus niger = test: MIC against fungi, Aspergillus niger (PDA medium); assay type: cell-based; details: 336 h, 28° C., 2 weeks, read-out: Antimicrobial activity (MIC), Fungi E: Aspergillus niger
Description: as §1, §2

Pseudomonas aeruginosa = test: MIC against bacteria, Pseudomonas aeruginosa (nutrient broth, turbidity); assay type: cell-based; details: 30° C., 24 hours, read-out: Antimicrobial activity (MIC), Bacteria C: Pseudomonas aeruginosa
Description: as §1, §3

Enterobacter aerogenes = test: MIC against bacteria, Enterobacter aerogenes (nutrient broth, turbidity); assay type: cell-based; details: Klebsiella aerogenes; 30° C., 24 hours; read-out: Antimicrobial activity (MIC), Bacteria A: Enterobacter aerogenes
Description: as §1, §3

Trichoderma viride = test: MIC against fungi, Trichoderma viride (PDA medium); assay type: cell-based; details: 336 h, 28° C., 2 weeks, read-out: Antimicrobial activity (MIC), Fungi H: Trichoderma viride
Description: as §1, §2

mold = details: background art; cited from earlier work
[1] = system: four bacteria and four fungi; test: Antimicrobial activity (MIC) against four bacteria and four fungi, overall; assay type: cell-based; details: from results of Table 1
Description: as §1, §3, §2

Row | Compound | MIC (Gliocladium virens) | toxicity against the human body (human body) | MIC (Eschericia coli) | MIC (Penicillium funiculosum) | MIC (Bacillus subtillis) | MIC (Aspergillus niger) | MIC (Pseudomonas aeruginosa) | MIC (Enterobacter aerogenes) | MIC (Trichoderma viride) | antimicrobial activity against mold (mold) | antimicrobial activity compared with the other derivatives [1] | antimicrobial activity compared with control 1-chloro-4-[[(3-iodo-2-propynyl)oxy]methoxy]benzene [1]
1 | Clc1ccc(OCOCC#CI)cc1 [IF-1000, 1-Chloro-4-[[(3-iodo-2-propynyl)oxy]methoxy]benzene, reference compound] | 1 to 2 µg/mL (≈ 3.1 to 6.2 µM) | low toxicity against the human body | 100 to 200 µg/mL (≈ 310 to 620 µM) | 0.4 to 1 µg/mL (≈ 1.24 to 3.1 µM) | 10 to 20 µg/mL (≈ 31 to 62 µM) | 0.4 to 1 µg/mL (≈ 1.24 to 3.1 µM) | > 1000 µg/mL | > 1000 µg/mL | 1 to 2 µg/mL (≈ 3.1 to 6.2 µM) | particularly high antimicrobial activity against mold |  | 
2 | CCOc1ccccc1OCOCC#CI [Derivative III-d, 1-Ethoxy-2-[[(3-iodo-2-propynyl)oxy]methoxy]benzene] | 4 to 10 µg/mL (≈ 12 to 30.1 µM) |  | > 1000 µg/mL | 4 to 10 µg/mL (≈ 12 to 30.1 µM) | 20 to 40 µg/mL (≈ 60.2 to 120 µM) | 1 to 2 µg/mL (≈ 3.01 to 6.02 µM) | > 1000 µg/mL | > 1000 µg/mL | 1 to 2 µg/mL (≈ 3.01 to 6.02 µM) |  |  | 
3 | CCOc1ccc(OCOCC#CI)cc1 [Derivative III-b, 1-Ethoxy-4-[[(3-iodo-2-propynyl)oxy]methoxy]benzene] | > 20 µg/mL |  | > 1000 µg/mL | > 20 µg/mL | 100 to 200 µg/mL (≈ 301 to 602 µM) | 4 to 10 µg/mL (≈ 12 to 30.1 µM) | > 1000 µg/mL | > 1000 µg/mL | 4 to 10 µg/mL (≈ 12 to 30.1 µM) |  |  | 
4 | COc1ccc(OC(C)OCC#CI)cc1 (stereo not drawn) [Derivative III-e, 1-[1-[(3-Iodo-2-propynyl)oxy]ethoxy]-4-methoxybenzene] | 4 to 10 µg/mL (≈ 12 to 30.1 µM) |  | > 1000 µg/mL | 2 to 4 µg/mL (≈ 6.02 to 12 µM) | 20 to 40 µg/mL (≈ 60.2 to 120 µM) | 0.4 to 1 µg/mL (≈ 1.2 to 3.01 µM) | > 1000 µg/mL | > 1000 µg/mL | 1 to 2 µg/mL (≈ 3.01 to 6.02 µM) |  | superior to the others in the antimicrobial activity | 
5 | COc1ccc(OCOCC#CI)cc1 [Derivative III-a, 1-[[(3-Iodo-2-propynyl)oxy]methoxy]-4-methoxybenzene] | 2 to 4 µg/mL (≈ 6.29 to 12.6 µM) |  | > 1000 µg/mL | 2 to 4 µg/mL (≈ 6.29 to 12.6 µM) | 10 to 20 µg/mL (≈ 31.4 to 62.9 µM) | 0.4 to 1 µg/mL (≈ 1.26 to 3.14 µM) | > 1000 µg/mL | > 1000 µg/mL | 0.4 to 1 µg/mL (≈ 1.26 to 3.14 µM) |  | superior to the others in the antimicrobial activity | show an antimicrobial activity similar to that of 1-chloro-4-[[(3-iodo-2-propynyl)oxy]methoxy]benzene
6 | CCOc1ccc(OC(C)OCC#CI)cc1 (stereo not drawn) [Derivative III-f, 1-Ethoxy-4-[1-[(3-Iodo-2-propynyl)oxy]ethoxy]benzene] | 4 to 10 µg/mL (≈ 11.6 to 28.9 µM) |  | 400 to 1000 µg/mL (≈ 1160 to 2890 µM) | 4 to 10 µg/mL (≈ 11.6 to 28.9 µM) | 10 to 20 µg/mL (≈ 28.9 to 57.8 µM) | 1 to 2 µg/mL (≈ 2.89 to 5.78 µM) | > 1000 µg/mL | > 1000 µg/mL | 1 to 2 µg/mL (≈ 2.89 to 5.78 µM) |  |  | 
7 | CCOc1ccccc1OC(C)OCC#CI (stereo not drawn) [Derivative III-h, 1-Ethoxy-2-[1-[(3-iodo-2-propynyl)oxy]ethoxy]benzene] | 4 to 10 µg/mL (≈ 11.6 to 28.9 µM) |  | > 1000 µg/mL | 2 to 4 µg/mL (≈ 5.78 to 11.6 µM) | 20 to 40 µg/mL (≈ 57.8 to 116 µM) | 2 to 4 µg/mL (≈ 5.78 to 11.6 µM) | > 1000 µg/mL | > 1000 µg/mL | 2 to 4 µg/mL (≈ 5.78 to 11.6 µM) |  |  | 
8 | COc1ccccc1OCOCC#CI [Derivative III-c, 1-[[(3-Iodo-2-propynyl)oxy]methoxy]-2-methoxybenzene] | > 20 µg/mL |  | > 1000 µg/mL | > 20 µg/mL | 200 to 400 µg/mL (≈ 629 to 1260 µM) | 10 to 20 µg/mL (≈ 31.4 to 62.9 µM) | > 1000 µg/mL | > 1000 µg/mL | 10 to 20 µg/mL (≈ 31.4 to 62.9 µM) |  |  | 
9 | COc1ccccc1OC(C)OCC#CI (stereo not drawn) [Derivative III-g, 1-[1-[(3-Iodo-2-propynyl)oxy]ethoxy]-2-methoxybenzene] | 4 to 10 µg/mL (≈ 12 to 30.1 µM) |  | > 1000 µg/mL | 2 to 4 µg/mL (≈ 6.02 to 12 µM) | 20 to 40 µg/mL (≈ 60.2 to 120 µM) | 1 to 2 µg/mL (≈ 3.01 to 6.02 µM) | > 1000 µg/mL | > 1000 µg/mL | 2 to 4 µg/mL (≈ 6.02 to 12 µM) |  |  | 
10 | N#Cc1ccc(OCOCC#CI)cc1 [Derivative III-i, 1-Cyano-4-[[(3-iodo-2-propynyl)oxy]methoxy]benzene] | 0.4 to 1 µg/mL (≈ 1.28 to 3.19 µM) |  | > 1000 µg/mL | 0.4 to 1 µg/mL (≈ 1.28 to 3.19 µM) | 20 to 40 µg/mL (≈ 63.9 to 128 µM) | 1 to 2 µg/mL (≈ 3.19 to 6.39 µM) | > 1000 µg/mL | > 1000 µg/mL | 0.4 to 1 µg/mL (≈ 1.28 to 3.19 µM) |  | superior to the others in the antimicrobial activity | show an antimicrobial activity similar to that of 1-chloro-4-[[(3-iodo-2-propynyl)oxy]methoxy]benzene
